Tests used:
RAW264.7 cells [1] = experiment: Osteoclast differentiation measured by TRAP staining of RANKL-treated RAW264.7 cells; format: cell-based, mouse; conditions: 2.5 or 6 days
Experimental: Cellular model RAW264.7 (mouse macrophage cell line, ATCC # TIB-71). These cells differentiate in osteoclast-like cells upon addition of receptor activator of nuclear factor-kappaB ligand (RANKL). Cell differentiation usually occurs within two days. Cells were studied at 2.5 (early stage), 6 and 10 days (late stage) following RANKL addition. Experimental treatments: In some experiments, 4-P-PDOT was added to the cells at the same time as RANKL at a concentration of 10^−6M. Cells cultured with RANKL only served as controls. In order to assess osteoclastogenesis, RAW264.7 cells were cultured with RANKL for 2.5 or 6 days with and without 10^−6M of 4-P-PDOT. RAW264.7 cells were fixed with paraformaldehyde and stained for TRAP activity (marker of active osteoclasts) at 2.5 and 6 days of differentiation. Positive-stained cells with more than 3 nuclei were counted in eight different microscopic fields done in quadruplicate. Results are presented in FIGS. 3A and B for the 2.5 or 6 days experiments, respectively. […] The effect of melatonin on osteoclastogenesis and osteoclast function was assessed with the same methods as those described in Examples 2 and 3 above except that cells were grown in the presence of 10^−9M of melatonin in addition to RANKL. In some experiments, melatonin was added along with 10^−6M of 4-P-PDOT. Cells treated with RANKL alone served as controls.

RAW 264.7 cells = experiment: Bone resorption assay on resorbable bone analog (BioCoat Osteologic discs); format: cell-based, mouse; conditions: 10^-9M melatonin with RANKL, 10 days culture
Experimental: Osteoclast activity was determined using a resorbable bone analog (BioCoat™ Osteologic™ discs, BD Biosciences). RAW 264.7 cells were plated on 16-well plates coated with this analog. 24 hours post-plating, cells were treated with RANKL alone or with RANKL+10^−6M of 4-P-PDOT for a period of 10 days. In another set of experiments, 10^−6M of 4-P-PDOT was added after 6 days of culture with RANKL and cells were cultured for an additional 4 days in order to examine the effects of 4-P-PDOT on more mature cells. At the end of the culture period, cells were detached with bleach and bone analog stained with 5% silver nitrate according to manufacturer's instructions to reveal the presence of resorbed bone area (resorption pits). The number of pits and the area of resorbed bone were quantified in 8 microscopic fields in duplicate using Bioquant™ software. The effect of melatonin on osteoclastogenesis and osteoclast function was assessed with the same methods as those described in Examples 2 and 3 above except that cells were grown in the presence of 10^−9M of melatonin in addition to RANKL. In some experiments, melatonin was added along with 10^−6M of 4-P-PDOT. Cells treated with RANKL alone served as controls.

[2] = system: adenylyl cyclase activity of forskolin-stimulated RAW 264.7 cells; experiment: cAMP production in forskolin-stimulated RAW264.7 cells (enzyme immunoassay); format: cell-based, mouse; conditions: increasing doses, 10^-4M forskolin, 30 minutes at 37° C., no RANKL
Experimental: RAW264.7 cells were grown in culture medium without RANKL until confluence (7 days). Cells were then incubated with 10^−4M of forskolin in presence of various concentrations of melatonin (FIG. 9, panel A), 4-P-PDOT (FIG. 9, panel B) or both (FIG. 9, panel C). Concentrations ranged from 10^−11 to 10^−5M for melatonin and from […] to 10^−4M for 4-P-PDOT. In the double treatment group, cells were treated with increasing concentrations of melatonin (10^−11 to 10^−5M) to which 10^−6M of 4-P-PDOT was added. After 30 minutes incubation at 37° C., cells were lysed in TRIS-EDTA buffer supplemented with protease and phosphodiesterase inhibitors at 4° C. The cAMP content was determined in duplicate in 200 μL aliquot of the supernatant using an enzyme immunoassay kit. […]

RANK = RANK expression by RT-PCR in RAW264.7 cell-derived osteoclasts; format: cell-based, mouse; conditions: RT-PCR after 6 days of treatment; 10^-9M melatonin, 10^-6M 4-P-PDOT
Experimental: The effect of melatonin and of 4-P-PDOT on the expression of various genes involved in osteoclast differentiation and activity was evaluated by RT-PCR after 6 days of treatment.

RAW264.7 cells [3] = experiment: Cell apoptosis by DeadEnd fluorometric TUNEL system; format: cell-based, mouse; conditions: 10^-6M 4-P-PDOT with RANKL, 6 days
Experimental: RAW264.7 cells were grown in culture medium with RANKL for 6 days with or without 10^−6M of 4-P-PDOT. Cells were fixed in 3.7% of paraformaldehyde and permeabilized with 0.2% Triton™-X-100. A subset of cells were treated with DNase for 10 minutes at room temperature and served as positive controls. Cell apoptosis was determined using the DeadEnd™ fluorometric TUNEL system. This method measures fragmented DNA through the incorporation of fluorescent-labeled d-UTP. Permeabilized cells were incubated in equilibration buffer with a nucleotide mix and the enzyme that catalyzes the reaction for 1 hour at 37° C. Negative controls were incubated without the enzyme. After several rinses in SSC and PBS, cells were mounted and visualized by fluorescence microscopy.

RAW264.7 cells [4] = experiment: Cell proliferation by tritiated thymidine incorporation; format: cell-based, mouse; conditions: 10^-6M 4-P-PDOT with RANKL, 2.5 days
Experimental: After 24 hour attachment, RAW264.7 cells were serum-starved overnight and then grown for 2.5 days in culture medium containing RANKL and melatonin (10^−7 or 10^−6M), or melatonin (10^−6M) and a melatonin receptor non-specific antagonist, luzindole (10^−8M), or melatonin (10^−6M) and 4-P-PDOT (10^−6M), or luzindole (10^−6M), or 4-P-PDOT (10^−6M) alone. Thymidine incorporation was assayed by the addition of 0.02 μCi/μL of tritiated thymidine to the medium 8 hours before cell harvest. Cells were then washed twice with ice-cold PBS and three times with cold 5% trichloroacetic acid. Cells were lysed in a mixture of 0.5N NaOH and 0.5% SDS and radioactivity of the lysates determined using a beta-counter.

male C57Bl/6j mice = experiment: Low-BMD mouse model: weight gain and bone densitometry over 35 days; format: in vivo; conditions: 10 mg/kg intraperitoneally three times a week, first 35 days
Experimental: In parallel, control animals received injections of a solution made of water and ethanol (20%). During this period, animals were subjected to weekly bone densitometric measurements (BMD and bone mineral content (BMC)) with a PixiMus™ II bone densitometer, and blood and urine collection. Scan of individual spine, long bones (femurs), were performed. Scans of tibiae, radius and mandible were also performed. To monitor bone formation rate, 25 mg/kg of tetracycline hydrochloride was injected on days 10 and 20 following the beginning of the injections. Bone histomorphometry for bone formation and resorption static and dynamic parameters were also measured. The biochemical markers used are alkaline phosphatase for bone formation, and urinary deoxypyridinoline for bone resorption.

male C57BL/6 mice = experiment: Femur section histology (TRAP and Goldner staining) in treated mice; format: in vivo, mouse; conditions: 10 mg/kg intraperitoneally three times a week, 4 weeks
Experimental: The effect of 4-P-PDOT on the formation of bones has also been tested using 4-week old male C57BL/6 mice following weaning. Mice were injected intraperitoneally with 10 mg/kg of 4-P-PDOT three times a week for 4 weeks (28 days). After this period, femur sections were stained to quantify tartrate-resistant acidic phosphatase- (TRAP-) positive osteoclasts (i.e. “active” osteoclasts). […] A Goldner staining was also performed on the femur sections in order to quantify the total number of osteoclasts.

| Structure (SMILES) | effect on osteoclastogenesis (TRAP-positive cells) (RAW264.7 cells [1]; 10^-9M melatonin with RANKL) | bone resorption (resorption pits, resorbed area) (RAW 264.7 cells) | cAMP production [2] | RANK's expression (RANK) | number of TRAP+ cells (osteoclast differentiation) (RAW264.7 cells [1]; 10^-6M 4-P-PDOT with RANKL) | apoptosis, treated vs. untreated cells (RAW264.7 cells [3]) | cell proliferation, treated vs. untreated cells (RAW264.7 cells [4]) | bone mineral accretion at the spine and whole body level vs vehicle-injected animals (male C57Bl/6j mice) | weight gain vs vehicle-injected animals (male C57Bl/6j mice) | number of active (TRAP-positive) osteoclasts in femur sections vs control mice (male C57BL/6 mice) | number of total osteoclasts (Goldner staining) in femur sections (male C57BL/6 mice) | reduction in the relative number of active osteoclasts vs vehicle-treated mice (male C57BL/6 mice) | relative number of total osteoclasts vs vehicle-treated mice (male C57BL/6 mice) | trabecular bone (Goldner staining) in femur sections (male C57BL/6 mice) |
| --- | --- | --- | --- | --- | --- | --- | --- | --- | --- | --- | --- | --- | --- | --- |
| COc1ccc2[nH]cc(CCNC(C)=O)c2c1 [melatonin] | did not have a significant effect | significantly reduced bone resorption | inhibited | significant decrease |  |  |  |  |  |  |  |  |  |  |
| CCC(=O)NC1Cc2ccccc2C(c2ccccc2)C1 (stereo not shown) [4-P-PDOT, 4-phenyl-2-propionamidotetralin] |  |  | cAMP production increases | significant decrease | reduces the number of TRAP+ cells | comparable | comparable | increase | increase | significant reduction | increased | about 3 fold | increased | increased |

Reference: patent US8222298B2, “Methods of correcting imbalance between bone resorption and bone formation and kits and compositions therefor” (CHU Sainte-Justine, priority 2007, dated 2012)
